Test results from patent US5491236A, “(1,2N) and (3,2N)-carbocyclic-2-amino tetralin derivatives” (The Upjohn Company, priority 1991, dated 1996).
pIC50: −log10 of the molar value. Counter-ions that a name gives are not always drawn. Blank lines part the entries; values can stand above or below the compound they belong to.

Columns and labels:
[1] = tested on: Sympathetic Nerve Discharge; assay: Sympathetic Nerve Discharge (SND) in chloralose anesthetized cats; assay type: in vivo; settings: for Max. Decr. SND %: maximum inhibition of sympathetic activity in dose range 0.001-1.0 mg/kg i.v., cats
Experimental: Sympathetic Nerve Discharge (SND): The i.v. mg/kg dose causing a 50% depression in SND in chloralose anesthetized cats and the maximum inhibition of sympathetic activity observed in the dose range tested (0.00 1-1.0 mg/kg i.v. ).

[2] = BP SND/MAX: blood pressure of chloralose anesthetized cats; assay type: in vivo; settings: for % BP Control: blood pressure in percent control at the dose causing 50% depression in SND, cats i.v.; for Max. Decr. BP (at SND ED50): maximum reduction in blood pressure as percent of control, 0.001-1.0 mg/kg i.v., cats
Experimental: BP SND/MAX: The blood pressure of the chloralose anesthetized cats in percent control at the dose causing 50% depression in SND and the maximum reduction in blood pressure as percent of the control blood pressure in the same animals observed in the dose range tested (0.001-1.0 mg/kg i.v.).

[3] = Hypothermia in mice (s.c.); assay type: in vivo; settings: subcutaneous, dose required to depress temperature by 2° C. in two of four mice; for ED50: Mus musculus, sc
Experimental: Hypothermia: Starting with a dose of 30 mg/kg, four mice are injected subcutaneously with test compound. Twenty minutes later, the number of animals whose body temperature has decreased by 2° C. or more are counted. If all four animals reach criteria, the drug is considered "active", and subsequent readings are taken at 60 and 120 minutes after drug. The time for last statistically significant drug affect on mean body temperature is indicated in minutes. […] Potency is given as mg/kg ED50 (dose required to depress temperature in two of four mice) as measured by Spearman-Karber statistics.

5-HT1A receptor [4] = assay: Selectivity, IC50 ratio of dopamine D2 to 5-HT1A in vitro binding; settings: result in words
Excerpt: (§1) The compounds of this invention where R1 is in 8-position in the aromatic ring are very selective 5-HT1A receptor agonists having generally little or no dopaminergic activity. […] The compound of this invention where R1 is in 5-position in the aromatic ring, on the other hand, have dopaminergic activity with little 5-HT1A agonist activity. […] These compounds are particularly effective anxiolytic and antidepressant agents. Other uses for these compounds include panic attacks, obsessive-compulsive disturbances, and senile dementia particularly the emotional disturbances seen in dementia disorders. In addition, central 5 -HT receptor activation are believed to be involved in mediating sexual behavior. These compounds would be useful to stimulate sexual activity and to alleviate impotence. The compounds of this invention are also useful to alleviate aggressive behavior, confusional delirious states.

[5] = target: T1, 5-hydroxytryptamine (5-HT1A) receptor (Bos taurus, UniProt F6Q2H9); assay: Inhibition of 8-OH-DPAT binding in a bovine brain homogenate (5-HT1A binding)
T1 construct: from tissue; host or cells: bovine brain homogenate
T1 sequence (F6Q2H9 1-422): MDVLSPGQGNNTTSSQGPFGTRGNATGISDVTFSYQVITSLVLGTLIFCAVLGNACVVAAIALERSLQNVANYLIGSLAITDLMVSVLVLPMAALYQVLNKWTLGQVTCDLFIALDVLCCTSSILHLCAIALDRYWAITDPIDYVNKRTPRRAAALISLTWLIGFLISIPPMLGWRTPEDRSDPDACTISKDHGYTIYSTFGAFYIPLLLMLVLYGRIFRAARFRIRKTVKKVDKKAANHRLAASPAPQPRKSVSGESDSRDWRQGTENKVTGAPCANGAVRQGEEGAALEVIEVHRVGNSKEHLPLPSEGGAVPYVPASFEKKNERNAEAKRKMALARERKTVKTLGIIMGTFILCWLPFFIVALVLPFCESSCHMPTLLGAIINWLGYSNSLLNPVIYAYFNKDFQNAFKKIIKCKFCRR
Excerpt: Binding: Inhibition of 8-OH-DPAT binding in a bovine brain homogenate. Potency is given as nM dose required to inhibit 50% of DPAT binding (IC50). This test measures ability to bind to 5-hydroxytryptamine (5-HT1A) receptor.

dopamine = assay: Dopamine activity (evaluation of dopamine and serotonin metabolites); settings: result in words
Excerpt: as §1

5-HT1A receptor [6] = assay: 5-HT1A agonist activity; settings: result in words
Excerpt: as §1

[7] = Chem. Ab., 79: 146294b; cited from earlier work
[8] = J. Pharm. Sci., 67, 880-82 (1978); cited from earlier work
dopamine receptors = settings: background, result in words; cited from earlier work
[9] = some patients; result in words; cited from earlier work
dopamine autoreceptors = settings: background, result in words; cited from earlier work
[10] = man, low doses; result in words; cited from earlier work

Compound: C=CCN1CC[C@@H]2c3ccccc3CC[C@@H]21.Cl (racemic) [Example 4 Compound #1, Cis-(+-)-2,3,3a,4,5,9b-hexahydro-3-(2-propenyl)-1H-benz[e]indole hydrochloride]
ED50 ([1]; Felis catus, iv, i.v. dose causing 50% depression in SND, chloralose anesthetized cats): 0.09 mg/kg
Max. Decr. SND % [1]: 0.0%
% BP Control [2]: 76%
Max. Decr. BP (at SND ED50) [2]: 60%

Compound: C=CCN1CC[C@@H]2c3c(cccc3OC)CC[C@@H]21 (racemic) [Example 4 Compound #2, cis-(+-)-2,3,3a,4,5,9b-hexahydro-9-methoxy-3-(2-propenyl)-1H-benz[e]indole hydrochloride]
ED50 [3]: 2.3 mg/kg
selectivity for the 5-HT1A receptor (5-HT1A receptor [4]): demonstrates the selectivity for the 5-HT1A receptor
pIC50 [5]: 8.55

Compound: C=CCN1CC[C@@H]2c3cccc(OC)c3CC[C@@H]21.Cl (racemic) [Example 4 Compound #3, Cis-(+-)-2,3,3a,4,5,9b-hexahydro-6-methoxy-3-(2-propenyl)-1H-benz[e]indole hydrochloride]
ED50 [3]: 30 mg/kg
dopamine activity (dopamine; hydrochloride): good selective dopamine activity
dopamine activity (dopamine; listed as Example 4, compound #3, hydrochloride): selective dopamine antagonist activity
pIC50 [5]: 6.20
5-HT1A agonist activity (5-HT1A receptor [6]): low 5-HT1A agonist activity

Compound: C=CCN1[C@H](C)C[C@H]2c3c(O)cccc3CC[C@H]21 (relative stereo) [Example 2 Compound #1, (+-)-2α,3,3a,α,4,5,9b,α-hexahydro-2-methyl-3-(2-propenyl)-1H-benz[e]indol-9-ol hydrochloride]
ED50 [3]: 5.5 mg/kg
pIC50 [5]: 9.02

Compound: CN(C)C1CCc2ccc(O)cc2C1(C)C (stereo not drawn) [1,1-Dimethyl-2-(N,N-dimethylamino)-7-hydroxytetralin]
analgesic and intestinal movement accelerating actions [7]: analgesic and intestinal movement accelerating actions

Compound: COc1cccc2c1CCC(NC1CC1)C2C (stereo not drawn) [1-methyl-2-(cyclopropylamino)-5-methoxytetralin]
local anesthetic activity [8]: local anesthetic activity

Compound: O=C1CC2(CCCC2)CC(=O)N1CCCCN1CCN(c2ncccn2)CC1 [Buspirone]
dopamine receptor antagonism (dopamine receptors): antagonizes dopamine receptors at the same dose it stimulates 5-HT1A receptors

Compound: CC1(C)CC(=O)N(CCCCN2CCN(c3ncccn3)CC2)C(=O)C1 [Gepirone]
effects on depressive endpoints [9]: ameliorative effects on some depressive endpoints in some patients
dopamine receptor antagonism (dopamine receptors): dopamine antagonist properties

Compound: CN1CCc2cccc3c2[C@H]1Cc1ccc(O)c(O)c1-3 [apomorphine]
activation of dopamine autoreceptors and post synaptic dopamine receptors (dopamine autoreceptors): able to activate the dopamine autoreceptors as well as the post synaptic dopamine receptors
anti-psychotic and anti-dyskinetic effects [10]: anti-psychotic and anti-dyskinetic effects in man

pIC50 [5]: 7.83
Compound: (+-)-1,2,2a,-3,4,8b-hexahydro-8-methoxy-2-(prop-2-en-1-yl)-naphtho[2, 1-B]azetidine hydrochloride [Example 5 Compound #1]
Hypothermia ED50 [3]: 4.1 mg/kg
SND ED50 ([1]; i.v. dose causing 50% depression in SND, chloralose anesthetized cats): 0.083 mg/kg
Max. Decr. SND % [1]: 14.0%
% BP Control [2]: 77%
Max. Decr. BP (at SND ED50) [2]: 59%
